The text below walks through data of patent US11197856B2, “Bicyclic compounds and methods for their use in treating autism” (priority 2013, dated 2021).

One assay deals with interleukin 1 beta. Briefly: PBBI in rats: IL-1beta ELISA. The format is in vivo. The following applies: 30 mg/kg oral gavage once daily. An excerpt:
The unilateral frontal PBBI model, which mimics the ballistic dynamics of a bullet or fragment wound to the head (Williams, 2003; Williams, 2006), was induced by stereotactic insertion of a custom probe through the right frontal cortex. A temporary cavity was formed by the rapid inflation/deflation (i.e. <40 msec) of an elastic balloon attached to the end of the probe. The PBBI apparatus consisted of a computer-controlled hydraulic pressure generator (Mitre Corp McLean, Va.), a PBBI probe and a stereotaxic frame equipped with a custom-designed probe holder as previously described (Lu, 2009; Williams, 2003). The injury severity was determined by the size of the balloon under control of the computerized hydraulic pressure. The balloon diameter calibrated to 0.63 cm expansion represented 10% of the total rat brain volume thus expressing a 10% PBBI. All surgeries were done under anaesthesia. Groups tested: Sham+vehicle, PBBI+vehicle, PBBI+cG-2-AllylP (30 mg/kg by oral gavage, 30 min post-injury, and again once daily until endpoint). […]
Target proteins were quantified with interleukin 1 beta (“IL-1beta”) (GenWay Biotech GWB-SKR107) and interleukin-6 (“IL-6”) (GenWay Biotech GWB-ZZD100) ELISAs according to manufacturer's instructions. Levels were calculated and normalized to total protein concentration as determined by BCA assay (n=9-10 per group).
Background: ELISA stands for enzyme-linked immunosorbent assay.

Another assay deals with p-Akt. Put plainly: Phospho-flow cytometry of lymphocytes, p-Akt. The format is in vivo. The note with it: fmr1-knockout mice; 15, 30, 60 and 240 minutes after a single treatment. An excerpt:
Lymphocytes are isolated from five fmr1-knockout and five wild-type titter mate control mice, per study time after injection with cG-2-AllylP. Lymphocytes are examined for activation of two signaling effectors, p-ERK1/2 and p-Akt using phosphorylation status as a measure of activation by flow cytometry (phospho-flow).
2. Flow cytometry total and phosphorylated AKT in lymphocytes

Assay [1] deals with layer 5 pyramidal neurons in sections of motor cortex. Put plainly: Golgi staining of cortical dendritic spines. The following applies: knockout neurons; P28. The format is in vivo, mice. As to the method: Samples (<1 cm) from P28 mice are fixed in 10% formalin and 3% potassium bichromate for 24 hours. Tissue is then transferred into 2% silver nitrate for 2 days in the dark at room temperature. Sections from these samples are then cut at 30 μm thickness into distilled water. Sections corresponding to motor cortex are mounted onto slides, air dried for 10 minutes, and then dehydrated through sequential rinses of 93% alcohol, 100% alcohol, and xylene, and then sealed with a coverslip. Images re acquired at 10× (whole cell) and 100× (spine imaging) using a Zeiss Pascal 3 Exciter confocal microscope.
We use Golgi staining to label neurons sparsely and distinctly, and applied high-resolution confocal imaging to measure dendritic spine density and morphology in the labelled cells, restricting analysis to layer 5 pyramidal neurons in sections of motor cortex from critical period mice (P28).
While low-magnification imaging clearly delineates the extent of the dendrites of the pyramidal cells we use higher magnifications to count synaptic contacts and determine the morphological class of each spine. We classify spines as either large and bulbous (“mushroom”, M), short and stubby (“stubby”, S), short and thin (“thin”, T) or filopodia (F).

The structures appear in SMILES notation.

Regarding `C=CC[C@]12CCCN1C(=O)CNC2=O` [cG-2-AllylP, (8aS)-Allyl-hexahydropyrrolo[1,2-a]pyrazine-1,4-dione], the IL1-beta levels result with interleukin 1 beta (3 days after PBBI) is “increased IL1-beta levels at 3 days after PBBI”; in the assay with interleukin 1 beta (7 days after PBBI) it was “decreased levels of IL1-beta at 7 days after PBBI”. For the same molecule, the “mean fluorescent intensity (MFI) for p-AKT” value in the assay on p-Akt was “decreases at all time points”. Further, the “density of spines per unit branch” value in assay [1] is listed as “largely ameliorated in the knockout with treatment”.
